In ChEMBL document CHEMBL5696441 (Nat Chem Biol, 2011):

Experiments:
[1] = target: Tyrosine-protein kinase ABL1 (Homo sapiens) (UniProt P00519); assay: Inhibition of ABL1 (unknown origin) assessed as remaining activity at 1 uM by Kinome scan method relative to control
[2] = target: Ephrin type-A receptor 2 (Homo sapiens) (UniProt P29317); assay: Inhibition of EPHA2 (unknown origin) assessed as remaining activity at 1 uM by Kinome scan method relative to control
[3] = target: T1, Ephrin type-A receptor 3 (Homo sapiens) (UniProt P29320); assay: Inhibition of EPHA3 (unknown origin) assessed as remaining activity at 1 uM by Kinome scan method relative to control
T1 sequence (whole entry): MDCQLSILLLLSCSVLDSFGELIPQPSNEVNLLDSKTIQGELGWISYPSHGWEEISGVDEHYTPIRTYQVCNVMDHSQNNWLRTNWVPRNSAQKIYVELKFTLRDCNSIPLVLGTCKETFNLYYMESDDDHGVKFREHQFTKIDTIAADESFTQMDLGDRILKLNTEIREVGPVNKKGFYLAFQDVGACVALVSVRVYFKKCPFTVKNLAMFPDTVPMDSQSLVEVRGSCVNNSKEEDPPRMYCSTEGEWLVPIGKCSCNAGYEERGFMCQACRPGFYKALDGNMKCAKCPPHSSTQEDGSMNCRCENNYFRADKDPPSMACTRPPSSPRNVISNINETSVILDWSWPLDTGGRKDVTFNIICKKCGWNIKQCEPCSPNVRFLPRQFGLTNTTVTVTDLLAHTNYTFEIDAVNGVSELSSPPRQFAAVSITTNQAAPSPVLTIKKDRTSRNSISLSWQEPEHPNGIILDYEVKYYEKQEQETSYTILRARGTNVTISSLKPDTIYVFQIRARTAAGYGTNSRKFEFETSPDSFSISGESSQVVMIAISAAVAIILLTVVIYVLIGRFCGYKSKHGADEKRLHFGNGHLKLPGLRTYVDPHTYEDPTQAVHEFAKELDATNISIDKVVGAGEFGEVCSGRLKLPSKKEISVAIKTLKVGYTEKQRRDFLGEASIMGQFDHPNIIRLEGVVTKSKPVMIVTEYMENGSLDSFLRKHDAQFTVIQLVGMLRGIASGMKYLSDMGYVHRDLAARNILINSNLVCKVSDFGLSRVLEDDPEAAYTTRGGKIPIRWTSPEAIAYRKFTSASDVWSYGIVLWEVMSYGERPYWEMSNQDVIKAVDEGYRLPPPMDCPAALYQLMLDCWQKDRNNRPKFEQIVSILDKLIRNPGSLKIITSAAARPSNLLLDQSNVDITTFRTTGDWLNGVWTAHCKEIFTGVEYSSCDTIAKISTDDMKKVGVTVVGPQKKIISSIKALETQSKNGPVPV

[4] = target: T2, Tyrosine-protein kinase JAK3 (Homo sapiens) (UniProt P52333); assay: Inhibition of JAK3 JH1 domain (unknown origin) assessed as remaining activity at 1 uM by Kinome scan method relative to control
T2 sequence (whole entry): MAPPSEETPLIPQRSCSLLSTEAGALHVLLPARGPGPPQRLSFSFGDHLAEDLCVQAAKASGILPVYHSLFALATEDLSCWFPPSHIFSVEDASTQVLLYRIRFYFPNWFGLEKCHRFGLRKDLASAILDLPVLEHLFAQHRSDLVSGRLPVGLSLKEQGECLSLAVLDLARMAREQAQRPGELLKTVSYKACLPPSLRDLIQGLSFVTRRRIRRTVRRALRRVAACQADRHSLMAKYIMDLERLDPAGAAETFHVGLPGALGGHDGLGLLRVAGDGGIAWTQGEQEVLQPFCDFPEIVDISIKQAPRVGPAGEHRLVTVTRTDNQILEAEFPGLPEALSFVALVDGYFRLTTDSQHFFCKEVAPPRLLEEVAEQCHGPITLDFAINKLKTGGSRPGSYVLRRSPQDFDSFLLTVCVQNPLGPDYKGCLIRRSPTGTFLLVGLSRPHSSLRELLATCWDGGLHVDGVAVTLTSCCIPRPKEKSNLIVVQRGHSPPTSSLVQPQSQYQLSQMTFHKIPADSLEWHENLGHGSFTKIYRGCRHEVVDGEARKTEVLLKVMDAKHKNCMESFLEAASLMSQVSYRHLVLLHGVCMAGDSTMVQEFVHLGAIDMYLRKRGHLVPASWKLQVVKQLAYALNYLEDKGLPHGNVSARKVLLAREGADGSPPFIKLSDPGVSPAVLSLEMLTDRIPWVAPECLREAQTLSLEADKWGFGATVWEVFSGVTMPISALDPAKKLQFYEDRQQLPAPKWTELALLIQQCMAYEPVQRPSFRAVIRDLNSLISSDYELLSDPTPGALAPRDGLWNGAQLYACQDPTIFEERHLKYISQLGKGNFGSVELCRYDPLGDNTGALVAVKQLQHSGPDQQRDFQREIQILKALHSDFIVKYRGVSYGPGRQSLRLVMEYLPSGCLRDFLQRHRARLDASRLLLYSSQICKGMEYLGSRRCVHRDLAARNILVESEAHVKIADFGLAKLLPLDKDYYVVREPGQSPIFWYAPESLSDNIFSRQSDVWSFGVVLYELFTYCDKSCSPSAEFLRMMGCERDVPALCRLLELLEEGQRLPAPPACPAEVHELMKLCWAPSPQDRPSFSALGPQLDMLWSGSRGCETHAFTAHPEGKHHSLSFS

[5] = target: Serine/threonine-protein kinase LATS2 (Homo sapiens) (UniProt Q9NRM7); assay: Inhibition of LATS2 (unknown origin) assessed as remaining activity at 1 uM by Kinome scan method relative to control
[6] = target: Mitogen-activated protein kinase kinase kinase 4 (Homo sapiens) (UniProt Q9Y6R4); assay: Inhibition of MAP3K4 (unknown origin) assessed as remaining activity at 1 uM by Kinome scan method relative to control
[7] = target: Serine/threonine-protein kinase RIO1 (Homo sapiens) (UniProt Q9BRS2); assay: Inhibition of RIOK1 (unknown origin) assessed as remaining activity at 1 uM by Kinome scan method relative to control
[8] = target: Ribosomal protein S6 kinase alpha-3 (Homo sapiens) (UniProt P51812); assay: Inhibition of N-terminal kinase domain RPS6KA3 (unknown origin) assessed as remaining activity at 1 uM by Kinome scan method relative to control
Ribosomal protein S6 kinase alpha-3 (Homo sapiens), sequence (P51812 whole entry, the tested form may be a part): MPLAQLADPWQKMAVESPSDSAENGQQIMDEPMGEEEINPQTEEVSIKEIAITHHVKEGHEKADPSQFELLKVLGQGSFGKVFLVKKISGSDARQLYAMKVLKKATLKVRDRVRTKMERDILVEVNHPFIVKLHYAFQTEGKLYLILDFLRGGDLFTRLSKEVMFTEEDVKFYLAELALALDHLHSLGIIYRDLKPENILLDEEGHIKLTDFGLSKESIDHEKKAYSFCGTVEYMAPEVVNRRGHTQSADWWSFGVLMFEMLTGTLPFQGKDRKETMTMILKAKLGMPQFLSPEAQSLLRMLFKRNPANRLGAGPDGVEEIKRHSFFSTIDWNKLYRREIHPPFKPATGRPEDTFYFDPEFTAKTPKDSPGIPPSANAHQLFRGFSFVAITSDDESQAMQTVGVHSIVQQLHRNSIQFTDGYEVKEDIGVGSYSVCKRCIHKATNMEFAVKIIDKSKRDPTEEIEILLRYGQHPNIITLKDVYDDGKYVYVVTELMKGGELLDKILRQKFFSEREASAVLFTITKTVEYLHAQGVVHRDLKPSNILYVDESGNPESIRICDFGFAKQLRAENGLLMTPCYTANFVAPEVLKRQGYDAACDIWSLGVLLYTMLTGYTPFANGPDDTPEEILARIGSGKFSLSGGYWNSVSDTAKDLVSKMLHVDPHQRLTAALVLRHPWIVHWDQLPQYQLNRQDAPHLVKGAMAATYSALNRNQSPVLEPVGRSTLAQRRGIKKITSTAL

Serine/threonine-protein kinase LATS2 (Homo sapiens), sequence (Q9NRM7 whole entry): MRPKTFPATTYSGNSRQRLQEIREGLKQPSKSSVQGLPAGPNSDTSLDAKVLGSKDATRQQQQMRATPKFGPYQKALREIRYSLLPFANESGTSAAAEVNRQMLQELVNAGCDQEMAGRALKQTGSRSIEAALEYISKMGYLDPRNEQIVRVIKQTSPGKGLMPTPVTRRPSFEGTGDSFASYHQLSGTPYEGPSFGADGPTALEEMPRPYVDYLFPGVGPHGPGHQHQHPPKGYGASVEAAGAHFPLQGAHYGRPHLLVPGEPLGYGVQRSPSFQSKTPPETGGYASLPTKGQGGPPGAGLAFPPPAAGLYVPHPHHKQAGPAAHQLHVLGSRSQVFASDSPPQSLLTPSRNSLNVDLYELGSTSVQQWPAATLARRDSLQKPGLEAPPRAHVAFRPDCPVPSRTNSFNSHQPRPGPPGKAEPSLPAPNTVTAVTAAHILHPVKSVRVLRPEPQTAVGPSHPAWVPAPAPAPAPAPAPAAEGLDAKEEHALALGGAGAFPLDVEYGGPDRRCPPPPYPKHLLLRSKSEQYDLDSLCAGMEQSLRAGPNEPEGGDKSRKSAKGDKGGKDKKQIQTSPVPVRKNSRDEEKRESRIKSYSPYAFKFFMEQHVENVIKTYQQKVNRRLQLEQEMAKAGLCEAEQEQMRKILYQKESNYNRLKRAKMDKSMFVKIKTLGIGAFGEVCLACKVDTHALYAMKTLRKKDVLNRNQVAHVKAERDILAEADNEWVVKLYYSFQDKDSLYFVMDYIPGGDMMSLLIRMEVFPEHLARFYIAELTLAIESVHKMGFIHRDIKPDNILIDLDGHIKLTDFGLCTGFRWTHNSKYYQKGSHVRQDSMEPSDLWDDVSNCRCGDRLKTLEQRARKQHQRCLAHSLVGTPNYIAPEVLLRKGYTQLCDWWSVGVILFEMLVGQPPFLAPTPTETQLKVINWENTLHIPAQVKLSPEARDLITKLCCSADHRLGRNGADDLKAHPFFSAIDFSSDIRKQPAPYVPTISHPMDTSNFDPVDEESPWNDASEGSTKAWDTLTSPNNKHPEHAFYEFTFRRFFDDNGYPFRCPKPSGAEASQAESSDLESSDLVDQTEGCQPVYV
Tyrosine-protein kinase ABL1 (Homo sapiens), sequence (P00519 whole entry): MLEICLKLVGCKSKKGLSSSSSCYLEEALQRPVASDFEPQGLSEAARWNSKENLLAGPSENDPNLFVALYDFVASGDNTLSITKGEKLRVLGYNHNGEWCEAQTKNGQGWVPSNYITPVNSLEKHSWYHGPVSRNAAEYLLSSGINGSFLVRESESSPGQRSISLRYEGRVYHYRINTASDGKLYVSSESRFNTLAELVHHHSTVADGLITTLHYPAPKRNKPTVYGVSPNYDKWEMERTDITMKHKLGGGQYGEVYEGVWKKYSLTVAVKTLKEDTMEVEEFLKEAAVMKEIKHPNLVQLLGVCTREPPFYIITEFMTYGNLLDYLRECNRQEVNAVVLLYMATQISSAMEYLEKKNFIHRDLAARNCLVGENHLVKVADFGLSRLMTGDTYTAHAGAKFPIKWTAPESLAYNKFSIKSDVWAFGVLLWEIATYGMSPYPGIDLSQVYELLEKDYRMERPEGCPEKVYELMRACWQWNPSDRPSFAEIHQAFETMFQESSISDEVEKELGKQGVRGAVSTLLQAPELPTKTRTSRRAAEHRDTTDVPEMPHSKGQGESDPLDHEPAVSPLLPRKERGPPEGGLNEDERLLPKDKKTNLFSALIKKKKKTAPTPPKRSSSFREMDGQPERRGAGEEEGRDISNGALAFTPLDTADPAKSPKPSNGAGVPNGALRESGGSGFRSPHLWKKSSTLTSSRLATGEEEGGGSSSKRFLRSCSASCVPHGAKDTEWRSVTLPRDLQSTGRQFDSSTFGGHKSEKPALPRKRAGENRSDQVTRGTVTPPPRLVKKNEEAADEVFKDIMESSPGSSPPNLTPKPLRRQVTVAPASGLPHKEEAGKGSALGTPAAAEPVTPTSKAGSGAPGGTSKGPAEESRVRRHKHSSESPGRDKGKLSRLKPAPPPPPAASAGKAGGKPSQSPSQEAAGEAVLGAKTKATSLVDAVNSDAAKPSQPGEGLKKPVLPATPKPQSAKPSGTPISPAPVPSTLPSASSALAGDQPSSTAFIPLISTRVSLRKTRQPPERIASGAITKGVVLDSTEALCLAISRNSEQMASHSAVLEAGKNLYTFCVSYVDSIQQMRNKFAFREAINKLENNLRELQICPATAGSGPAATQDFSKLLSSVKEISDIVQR
Ephrin type-A receptor 2 (Homo sapiens), sequence (P29317 whole entry): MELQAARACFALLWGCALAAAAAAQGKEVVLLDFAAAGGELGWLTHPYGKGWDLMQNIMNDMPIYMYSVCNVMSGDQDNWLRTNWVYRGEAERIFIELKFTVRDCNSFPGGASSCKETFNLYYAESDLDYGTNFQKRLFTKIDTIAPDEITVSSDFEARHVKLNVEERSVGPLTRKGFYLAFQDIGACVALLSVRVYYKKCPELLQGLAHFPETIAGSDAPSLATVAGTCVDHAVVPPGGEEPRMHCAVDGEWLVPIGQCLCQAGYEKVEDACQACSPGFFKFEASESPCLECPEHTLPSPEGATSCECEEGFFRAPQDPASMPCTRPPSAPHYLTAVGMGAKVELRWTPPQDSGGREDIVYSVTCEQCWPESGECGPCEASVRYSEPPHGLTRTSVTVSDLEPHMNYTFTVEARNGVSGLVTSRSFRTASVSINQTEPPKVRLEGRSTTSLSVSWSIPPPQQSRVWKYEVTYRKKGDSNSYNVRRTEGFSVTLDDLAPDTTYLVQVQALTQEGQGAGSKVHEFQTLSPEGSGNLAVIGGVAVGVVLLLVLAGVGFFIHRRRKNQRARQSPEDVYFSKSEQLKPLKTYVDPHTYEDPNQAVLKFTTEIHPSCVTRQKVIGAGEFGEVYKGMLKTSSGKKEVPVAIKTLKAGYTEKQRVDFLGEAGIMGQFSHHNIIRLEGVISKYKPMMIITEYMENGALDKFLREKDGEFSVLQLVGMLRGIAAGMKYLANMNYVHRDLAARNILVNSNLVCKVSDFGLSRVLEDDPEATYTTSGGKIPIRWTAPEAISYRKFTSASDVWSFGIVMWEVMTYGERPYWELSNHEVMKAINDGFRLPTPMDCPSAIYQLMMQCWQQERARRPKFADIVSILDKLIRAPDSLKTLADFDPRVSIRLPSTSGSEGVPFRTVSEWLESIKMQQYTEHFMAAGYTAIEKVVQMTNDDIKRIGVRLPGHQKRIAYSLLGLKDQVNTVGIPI
Serine/threonine-protein kinase RIO1 (Homo sapiens), sequence (Q9BRS2 whole entry, the tested form may be a part): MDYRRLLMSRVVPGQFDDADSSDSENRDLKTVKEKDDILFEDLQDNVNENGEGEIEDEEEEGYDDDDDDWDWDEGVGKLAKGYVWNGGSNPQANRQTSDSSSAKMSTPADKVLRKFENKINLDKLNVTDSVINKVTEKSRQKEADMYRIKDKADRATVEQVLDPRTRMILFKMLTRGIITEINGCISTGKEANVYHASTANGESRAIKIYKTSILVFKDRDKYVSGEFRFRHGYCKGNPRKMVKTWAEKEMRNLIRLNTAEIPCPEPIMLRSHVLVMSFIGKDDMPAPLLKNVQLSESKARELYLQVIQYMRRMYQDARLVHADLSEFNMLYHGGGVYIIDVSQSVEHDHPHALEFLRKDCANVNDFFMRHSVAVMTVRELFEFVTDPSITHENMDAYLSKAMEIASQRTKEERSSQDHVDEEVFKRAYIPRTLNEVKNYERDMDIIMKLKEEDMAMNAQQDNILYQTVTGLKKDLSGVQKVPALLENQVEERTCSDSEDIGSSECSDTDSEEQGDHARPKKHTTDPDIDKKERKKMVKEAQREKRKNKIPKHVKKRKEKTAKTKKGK

Compound | Activity [1] [%] | Activity [2] [%] | Activity [3] [%] | Activity [4] [%] | Activity [5] [%] | Activity [6] [%] | Activity [7] [%] | Activity [8] [%]
Nc1ccccc1Nc1ccc2c(c1)CCc1ccccc1C2=O | 84 | 93 | 83 | 96 | 77 | 82 | 94 | 97
O=C1c2ccc(Nc3ccc(F)cc3F)cc2CCc2ccc(OC[C@H](O)CO)cc21 [Skepinone-L] | 94 | 92 | 94 | 91 | 94 | 85 | 95 | 93
